According to patent US5187166A, “Azabicyclo derivatives and their use as antiemetics” (Nisshin Flour Milling Co., Ltd., priority 1990, dated 1993):

Test system: 5-HT3 receptors
Assay: antagonism of the von Bezold-Jarisch reflex (bradycardia) induced by 5-HT in the anaesthetised rat
Type: in vivo
Conditions: i.v., hydrochloride salt, 5 min before 5-HT 30 μg/kg, urethane-anaesthetised rats
Experimental: Temporary bradycardia is induced by administration of 5-HT (serotonin) to anaesthetised rats via jugular vein (von Bezold Jarisch Reflex) (A. S. Paintal, Physiol. Rev., 53, 159-210 (1973)).
The compounds of the present invention were evaluated for antagonism of the von Bezold-Jarisch reflex induced by 5-HT in the anaesthetised rat according to the following method.
Rats were anaesthetised with urethane (1 g/kg, intraperitoneally) and blood pressure and heart rate recorded from left femoral artery. Percent inhibition was calculated from bradycardia induced by 5-HT (30 μg/kg) given 5 minutes following intrajugular administration of a compound of the invention, taking the bradycardia induced by the intrajugular administration of 5-HT. The compounds of the present invention were tested in the form of their hydrochloride salts.

Structure (SMILES)	Percent Inhibition (0.1 μg/kg) [%]	Percent Inhibition (1.0 μg/kg) [%]	Percent Inhibition (10 μg/kg) [%]
CN1C[C@H]2C[C@@H](NC(=O)c3nn(Cc4ccccc4)c4ccccc34)C[C@@H](C1)N2C [Example 17, Endo-3,9-dimethyl-3,9-diazabicyclo[3.3.1]non-7-yl 1-benzylindazole-3-carboxamide]	43	91	
CN1C[C@H]2C[C@@H](NC(=O)c3n[nH]c4ccccc34)C[C@@H](C1)N2C [Example 13]		28	95
CN1C[C@H]2C[C@@H](NC(=O)c3nn(C)c4ccccc34)C[C@@H](C1)N2C [Example 12, Endo-3,9-dimethyl-3,9-diazabicyclo[3.3.1]non-7-yl 1-methylindazole-3-carboxamide]	25	71	
COc1cc(N)c(Cl)cc1C(=O)N[C@@H]1C[C@@H]2CN(C)C[C@H](C1)N2C [Example 22, Endo-3,9-dimethyl-3,9-diazabicyclo[3.3.1]non-7-yl 4-amino-5-chloro-2-methoxyphenylcarboxyamide]		43	89
CC(C)n1nc(C(=O)N[C@@H]2C[C@@H]3CN(C)C[C@H](C2)N3C)c2ccccc21 [Example 16, Endo-3,9-dimethyl-3,9-diazabicyclo[3.3.1]non-7-yl 1-(2-propyl)indazole-3-carboxamide]	59		
CN1[C@@H]2CSC[C@H]1C[C@@H](OC(=O)c1nn(C)c3ccccc13)C2 [Example 3, (Endo-9-methyl-3-thia-9-azabicyclo[3.3.1]non-7-yl) 1-methylindazole-3-carboxylate]	43	67	
CN1C[C@H]2C[C@@H](NC(=O)c3c[nH]c4ccccc34)C[C@@H](C1)N2C [Example 11, Endo-3,9-dimethyl-3,9-diazabicyclo[3.3.1]non-7-yl 1H-indole-3-carboxamide]		39	79
CN1C[C@H]2C[C@@H](OC(=O)c3c[nH]c4ccccc34)C[C@@H](C1)N2C [Example 9, (Endo-3,9-dimethyl-3,9-diazabicyclo[3.3.1]non-7-yl) 1H-indole-3-carboxylate]	28	58	91
CN(C)CCn1nc(C(=O)N[C@@H]2C[C@@H]3CN(C)C[C@H](C2)N3C)c2ccccc21 [Example 19, Endo-3,9-dimethyl-3,9-diazabicyclo[3.3.1]non-7-yl 1-[2-(dimethylamino)ethyl]indazole-3-carboxamide]		10	
COc1cc(N)c(Cl)cc1C(=O)O[C@H]1C[C@H]2CSC[C@@H](C1)N2C [Example 5, (Endo-9-methyl-3-thia-9-azabicyclo[3.3.1]non-7-yl) 4-amino-5-chloro-2-methoxy benzoate]			58
CN1[C@@H]2COC[C@H]1C[C@@H](NC(=O)c1c[nH]c3ccccc13)C2 [Example 7, Endo-9-methyl-3-oxa-9-azabicyclo[3.3.1]non-7-yl 1H-indole-3-carboxamide]		36	72
CN1[C@@H]2COC[C@H]1C[C@@H](OC(=O)c1c[nH]c3ccccc13)C2 [Example 2, (Endo-9-methyl-3-oxa-9-azabicyclo[3.3.1]non-7-yl) 1H-indole-3-carboxylate]	54	93	
CCn1nc(C(=O)N[C@@H]2C[C@@H]3CN(C)C[C@H](C2)N3C)c2ccccc21 [Example 15, Endo-3,9-dimethyl-3,9-diazabicyclo[3.3.1]non-7-yl 1-ethylindazole-3-carboxamide]	42	91	
CN1[C@@H]2COC[C@H]1C[C@@H](OC(=O)c1nn(C)c3ccccc13)C2 [Example 4, (Endo-9-methyl-3-oxa-9-azabicyclo[3.3.1]non-7-yl) 1-methylindazole-3-carboxylate]	59	80	
CCCCCCCCn1nc(C(=O)N[C@@H]2C[C@@H]3CN(C)C[C@H](C2)N3C)c2ccccc21 [Example 18, Endo-3,9-dimethyl-3,9-diazabicyclo[3.3.1]non-7-yl 1-(n-octyl)indazole-3-carboxamide]		15	
CN1[C@@H]2CSC[C@H]1C[C@@H](OC(=O)c1c[nH]c3ccccc13)C2 [Example 1, (Endo-9-methyl-3-thia-9-azabicyclo[3.3.1]non-7-yl) 1H-indole-3-carboxylate]	51	85	
